# Tests used:
# A549 lung cancer cells = test: Apoptotic cells by TdT-FACS analysis; assay type: cell-based, human
# Description: Approximately 10^4 cells were seeded on tissue culture plates 24 h before drug treatment or adenoviral infection. […] FIG. 4C—A549 lung cancer cells were examined for apoptotic cell death 48 h after FZ and Ad5p53 treatment alone or in combination. Percent apoptotic cells were measured by TdT-FACS analysis.
# For TdT FACS analysis control and treated cells were collected by trypsinization, washed in PBS, and fixed overnight in 70% ethanol. The next day, cells were rehydrated in PBS for 30 min, centrifuged, and resuspended in PBS. For DNA analysis, propidium iodide (PI) was added at 50 μg/ml, and the cells were incubated in the presence of RNase A (15 mg/ml for 30 min at 37° C.). To detect DNA strand breaks associated with apoptosis, cells were fixed in 1% formaldehyde for 15 min at 4° C., rinsed in PBS, and stored at 4° C. in ice-cold 70% ethanol. Before staining, the cells were washed in PBS, and 10^6 cells were resuspended in 50 ml of cacodylated buffer containing 100 μ/ml TdT enzyme and 0.5 nM biotin-16 dUTP for 30 min at 37° C. Cells were washed in PBS and resuspended in 100 ml of 4×SSC containing 2.5 mg/ml fluoresceinated avidin, 0.1% Triton X-100, and 5% dry fat milk and then incubated at room temperature for 30 min in the dark. […] Flow cytometry was carried out in a fluorescence-activated cell sorter (Epics Elite; Coulter, Inc., Hialeah, Fla.).
# [1] = tested on: human lung cancer cell lines (H460 and A549); test: In vitro proliferation assay with MZ, cell count; assay type: cell-based; conditions: 24 h treatment, read-out: half maximal inhibitory concentration (IC50)
# Description: (§1) Cells of the human non-small cell lung cancer (NSCLC) cell line A549, WI-38 normal fibroblast (American Type Culture Collection, Rockville, Md.) and H460 (a gift from Drs. Adi Gazdar and John Minna. University of Texas Southwestern Medical Center, Dallas) were seeded on culture plates (2×10^4 cells/well) in F12 and RPMI medium, respectively, supplemented with 10% heat-inactivated fetal calf serum and antibiotics. HUVEC were grown in medium supplemented with growth factor (Clonetics, San Diego). The cells were then exposed to MZ dissolved in dimethyl sulfoxide (DMSO) when grown to 40-50% confluence. Cell growth was monitored by counting the cells using a hemocytometer.
# (§2) Initially, the inventors examined the effect of MZ on proliferation of human lung cancer cell lines (H460 and A549) in vitro.
# [2] = tested on: human vascular endothelial cells (HUVEC); test: In vitro proliferation assay with MZ, cell count; assay type: cell-based; conditions: 24 h treatment
# Description: as §1, §2
# normal fibroblast = test: In vitro proliferation assay with MZ, cell count; assay type: cell-based, human; conditions: 24 h treatment
# Description: as §1, §2
# [3] = tested on: H460 human non-small cell lung cancer xenograft; assay type: in vivo, athymic nu/nu mice
# Description: Mice that had received 3.5 Gy of total body irradiation 1 day before inoculation were given injections into the shoulder of 2×10^6 tumor cells. Mice were then given MZ oral suspension (100 mg Vermox chewable tablet, Janssen Pharmaceutica, NJ, suspended in 10 ml PBS by sonication for 30 sec) with indicated concentration every other day, starting the day after 3-5 mm tumor established. Five mice were used in each group. Control and treated mice were then monitored for tumor growth; the tumors were measured externally in cross-sectional diameter every 7 days. Tumor volumes were calculated as previously described. Experiments were repeated three times.
# The in vitro effect of MZ on proliferation of tumor cell lines prompted us to investigate its antitumor activity in an athymic nu/nu mouse model. Tumors were established by subcutaneous injection of H460 cells, a human non-small cell lung cancer (NSCLC) cell line ([…] cells/mouse) (FIG. 5B). […] Moreover, 10/10 animals inoculated with 1×10^6 cells developed tumors within 12 days. […] T0.2, T0.4 and T0.8 correspond to 0.2, 0.4 and 0.8 mg of MZ treatment groups (FIG. 5C). Animals with established tumors, 3-5 mm in diameter, received MZ every other day for 4 weeks, after which tumors were harvested, photographed, and weighed.
# [4] = tested on: A549 metastatic lung colonies; test: Lung metastases in vivo after tail vein injection; set-up: species or system female nude mice
# Description: To establish lung metastases, female nude mice were injected intravenously via tail vein with 10^6 A549 tumor cells suspended in […] of sterile PBS. Six days later, mice were divided into two groups of 5 mice each and treated. Group 1 received no treatment and group 2 received the experimental MZ drug orally at 1 mg of drug (100 μl) twice a week for 3 weeks. After 3 weeks, animals were euthanized by CO2 inhalation. Lungs from each of the mice from the two groups were injected intra-tracheally with India ink and fixed in Feketes solution. The therapeutic effect of MZ treatment was determined by counting the number of metastatic tumors in each lung under a dissecting microscope without knowledge of the treatment groups. The experiments were performed three times and data analyzed and interpreted as statistically significant if the p value was <0.05 by the Mann-Whitney rank-sum test.
# Next, the inventors asked whether treatment with MZ would inhibit the growth of human metastatic lung cancer cells in vivo. About 300 metastatic colonies appeared on untreated mice 21 days after A549 cell injection into the tail vein (FIG. 6). This technique was reproducible as the totals blindly counted by two investigators differed by less than 10%. This experiment was performed three times with similar results. The oral administration of […] MZ reduced mean colony count to 80% of the mean value for controls (P<0.0001).
# [5] = tested on: Ad-luciferase transgene expression; test: Ad-luciferase transgene expression with or without MZ; assay type: cell-based; conditions: six cell lines, MZ at 50 ng/ml, 48 hours
# Description: FIG. 8. Expression of Ad-luciferase in H1299 cells with and without MZ. H1299 cells were treated with media (UT) or Ad-luciferase at increasing multiplicities of infection, with or without MZ at 50 ng/ml. Forty-eight hours later, cells were harvested and luciferase activity assayed.
# FIG. 9. Expression of Ad-luciferase in A549 cells with and without MZ. A549 cells were plated in 6-well dishes and either treated with media (UT) or Ad-luciferase at increasing multiplicities of infection, with or without MZ at 50 ng/ml. Forty-eight hours later, cells were harvested and luciferase activity assayed.
# Next, a series of six cell lines were transfected with Ad-luciferase at increasing multiplicities of infection, with or without MZ at 50 ng/ml.
# [6] = tested on: adenovirus expressed MDA-7; test: Adenovirus expressed MDA-7 levels; assay type: cell-based
# H460 NSCLC cells = test: Cell cycle profiles by FACS, MZ and vinorelbine; assay type: cell-based, human
# Description: FIG. 10. MZ Enhances activity of anti-mictotic drugs in H460 NSCLC cells. H460 cells were treated with low dose of MZ or Vinorelbine. Cell cycle profiles indicating G1/S G2-Mphases were analyzed by FACS.
# The doses of MZ and vinorelbine were chosen to be “sub-therapeutic”. […] Thus, in H460 NSCLC cells mebendazole enhances the activity of anti-mitotic drugs.
# [7] = tested on: H460 NSCLC cell lines resistant to taxol or vinorelbine; test: Cell death of microtubule drug resistant cells; assay type: cell-based, human; conditions: MZ 0.5 μM, 48 h time point
# Description: The inventors have developed H460 NSCLC cell lines that are resistant to the microtubule drugs: taxol (7 nM) or vinorelbine (9 nM). These cell lines show a marked cross resistance to each other. For example Taxol resistant cells show resistance to Vinorelbine mediated cell death. […] Thus, MZ can be effectively used for killing multi-drug resistant (MDR) cells in a clinical setting.
Compound,apoptotic cells (A549 lung cancer cells; 48 h after combination treatment FZ and Ad5p53) [%],apoptotic cells (A549 lung cancer cells; FZ treatment alone) [%],IC50 [1] [nM],effect on growth of HUVEC [2],effect on growth of normal fibroblast (normal fibroblast),"tumor growth, dose escalation ([3]; 0.2, 0.4 and 0.8 mg of MZ every other day)",tumor weight versus control animals ([3]; MZ every other day for 4 weeks),"tumor growth ([3]; established tumors (3 mm), 1 mg of MZ orally every other day)","toxicity in treated mice ([3]; mouse, in vivo)",size of tumor colonies (transverse diameter) ([4]; H and E staining of lung tissues),"mean colony count, % of the mean value for controls ([4]; oral administration of 1 mg/ml MZ, 21 days after A549 injection, P<0.0001) [%]",transgene expression [5],levels of adenovirus expressed MDA-7 [6],apoptosis (sub-G0 cells) under combination of MZ and vinorelbine (H460 NSCLC cells; 24-48 hr cultures),interaction of MZ combined with Vinorelbine (H460 NSCLC cells; low doses of both drugs),apoptosis under monotherapy (H460 NSCLC cells; sub-therapeutic low dose),cell death [7]
"COC(=O)Nc1nc2ccc(Sc3ccccc3)cc2[nH]1 [Fenbendazole, methy 5-(phenylthio)-2-benzimidazole-2-carbamate]",30,11,,,,,,,,,,,,,,,
"COC(=O)Nc1nc2ccc(C(=O)c3ccccc3)cc2[nH]1 [Mebendazole, Methyl 5-benzoylbenzimidazole-2-carbamate]",,,~120,no effect,no effect,suppressed the growth of the tumors in a dose-dependent manner,marked difference,profoundly inhibit tumor growth,no signs of toxicity,significantly reduced,80,significant increases,increased levels,pronounced apoptosis,synergistic interaction,No apoptosis,40-70%
